The target in series [1] is T1, 3',5'-cyclic-AMP phosphodiesterase 4D (Homo sapiens, UniProt Q08499). The series is described as follows: Inhibition of PDE4D7 (unknown origin) using FAM-cyclic-3',5'-AMP as substrate at 10 nM incubated for 1 hrs by fluorescence polarization based IMAP assay relative to control. On the technique in general: In fluorescence polarisation assays a small probe gives low polarisation when free and higher when bound to something large.

The subject of a further series is HT-22. The series is described as follows: Cytotoxicity against mouse HT-22 cells assessed as reduction in cell viability at 30 uM incubated for 48 hrs by MTT assay. It counts as toxicity, cell-based. The conditions noted are these: ht-22, 48 h. A general note: Formazan colour is commonly taken as a measure of viable cells.
Series [2] deals with T1, 3',5'-cyclic-AMP phosphodiesterase 4D. The series is described as follows: Inhibition of PDE4D7 (unknown origin) using FAM-cyclic-3',5'-AMP as substrate at 100 nM incubated for 1 hrs by fluorescence polarization based IMAP assay relative to control.
Series [3] shares this target. The series is described as follows: Inhibition of PDE4D7 (unknown origin) using FAM-cyclic-3',5'-AMP as substrate incubated for 1 hrs by fluorescence polarization based IMAP assay.
For another series, the system named is SH-SY5Y. The series is described as follows: Cytotoxicity against human SH-SY5Y cells assessed as reduction in cell viability at 20 uM incubated for 48 hrs by MTT assay. It counts as toxicity, cell-based.
Series [4] can be described thus: Toxicity in ketamine/xylazine-induced anesthetic C57BL/6J mouse model assessed as emetogenic potential by measuring reduction in anesthesia duration at 0.5 mg/kg, po preadministered with compound for 15 mins followed by ketamine/xylazine administration. The conditions noted are these: in vivo, 0.25 h. Format: organism-based.
Series [5] can be described thus: Oral bioavailability in Sprague-Dawley rat at 5 mg/kg measured after 24 hrs by LC-MS/MS analysis. Format: ADME, organism-based. The conditions noted are these: in vivo.
The target in series [6] is T1, 3',5'-cyclic-AMP phosphodiesterase 4D. The series is described as follows: Inhibition of PDE4D7 (unknown origin) using FAM-cyclic-3',5'-AMP as substrate at 1 microM incubated for 1 hrs by fluorescence polarization based IMAP assay relative to control.
A short description of series [7]: Chemical stability of compound in aqueous solution at pH >10 measured after 48 hrs. It counts as physicochemical. The conditions noted are these: buffer.
The nature of series [8]: Chemical stability of compound in aqueous solution at pH <6 measured after 48 hrs. It counts as physicochemical. The conditions noted are these: buffer.

Molecules are shown by their SMILES.

T1 sequence (Q08499 whole entry): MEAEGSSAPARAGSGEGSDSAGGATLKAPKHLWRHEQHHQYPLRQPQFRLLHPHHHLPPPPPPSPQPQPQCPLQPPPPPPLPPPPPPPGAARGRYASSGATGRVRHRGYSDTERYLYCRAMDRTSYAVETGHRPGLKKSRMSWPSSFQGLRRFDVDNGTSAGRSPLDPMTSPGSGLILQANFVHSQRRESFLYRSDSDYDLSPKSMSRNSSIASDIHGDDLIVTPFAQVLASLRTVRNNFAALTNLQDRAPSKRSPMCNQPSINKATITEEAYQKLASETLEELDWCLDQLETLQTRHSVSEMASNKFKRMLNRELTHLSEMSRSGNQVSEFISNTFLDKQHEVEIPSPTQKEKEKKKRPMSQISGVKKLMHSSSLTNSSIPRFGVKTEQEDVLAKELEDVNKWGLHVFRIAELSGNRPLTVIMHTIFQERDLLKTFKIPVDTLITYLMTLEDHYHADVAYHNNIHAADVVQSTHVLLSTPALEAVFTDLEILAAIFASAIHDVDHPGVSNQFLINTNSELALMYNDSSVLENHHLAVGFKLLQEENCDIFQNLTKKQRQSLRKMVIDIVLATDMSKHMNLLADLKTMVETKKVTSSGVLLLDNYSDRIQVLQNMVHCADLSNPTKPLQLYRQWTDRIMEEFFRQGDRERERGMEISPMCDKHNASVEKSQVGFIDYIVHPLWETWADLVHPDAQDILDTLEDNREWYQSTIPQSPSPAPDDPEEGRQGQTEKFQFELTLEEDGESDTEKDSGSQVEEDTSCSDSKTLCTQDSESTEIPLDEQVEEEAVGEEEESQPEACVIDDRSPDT

One may read the inhibition as the relative decrease from the control value, in per cent. A high value points to a strong effect. As usually defined, the IC50 is the concentration needed to halve the response being measured. A higher IC50 goes with lower potency. Take `CCOc1nc(Cl)cc2nn(CC(=O)NO)cc12`: the inhibition in series [1] came to 36%; in [2], 69%. Further, the Activity entry in the series with HT-22 and with SH-SY5Y was “Non-Toxic” throughout. In series [3], this compound displayed an IC50 of 20.2 nM.

Consider `O=C(Nc1c(Cl)cncc1Cl)c1ccc(OC(F)F)c(OCC2CC2)c1` [ROFLUMILAST], for which, in [4], the Activity entry is listed as “Toxic”.

Take `CCOc1nc(Cl)cc2c1cnn2CC(=O)NO`: the inhibition in [1] came out at 41%; in series [2], 68%. For the same compound, the Activity entry in the series with HT-22 and with SH-SY5Y was “Non-Toxic” throughout. Besides, the IC50 in [3] was determined as 16.6 nM.

For orientation: bioavailability means the share of a dose that reaches the circulation, judged against a reference dose that is usually intravenous. Read a high bioavailability as much systemic uptake. In series [5], `CC(C)NC(=O)c1ccc(OC(F)F)c(OCC2CC2)c1` came in with a bioavailability of 1.2%.

`CCOc1nc(Cl)cc2c1cnn2C1CCOCC1`: the inhibition stood at 64% in series [2] and 95% in [6]. The compound further returned an IC50 in series [3] of 92.7 nM. The Stability entry in [7] and in [8] was “Stable” throughout.

For the compound `CCOc1nc(Cl)nc2c1cnn2C1CCOCC1`, the Stability result in series [7] and in [8] was “Unstable” each time.

As for `CCOc1cc([C@@H](CS(C)(=O)=O)N2C(=O)c3cccc(NC(C)=O)c3C2=O)ccc1OC` [APREMILAST], in [4], the Activity entry is on record as “Toxic”.

Turning to `CCOc1nc(Cl)cc2nn(CCCO)cc12`, the figures for the inhibition in series [1] and in series [2] were 21% and 53%, respectively. Besides, the Activity result with HT-22 and with SH-SY5Y was “Non-Toxic” throughout. For the same compound, the IC50 in series [3] was found to be 71.3 nM.
